Experimental data taken from US20250360218A1, “MITOCHONDRIA-TARGETING CANCER THERAPEUTIC COMPOSITION” (Seoul National University R&DB Foundation, priority 2022, published 2025).

Target: TSPO (Homo sapiens, UniProt P30536)
Experiment: protein binding capacity for TSPO
Protocol: In order to find the conjugation position of IR780, a photosensitizer according to Example of the present invention, and an imidazopyridine derivative, a molecular docking simulation was performed. […] Accordingly, the compound of the present invention, a compound targeting mitochondria in cancer cells, was designed and synthesized so that IR780 was introduced by selecting a position (position Y in FIG. 1B) where steric hindrance is not expected, and then its protein binding capacity was measured.

Sequence of TSPO (P30536 whole entry): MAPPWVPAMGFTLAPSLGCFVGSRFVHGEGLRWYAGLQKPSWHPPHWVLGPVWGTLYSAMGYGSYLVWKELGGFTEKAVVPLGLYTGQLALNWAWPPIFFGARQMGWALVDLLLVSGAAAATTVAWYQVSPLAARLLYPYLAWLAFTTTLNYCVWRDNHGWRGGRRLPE

**Q.** `CCCN(CCC)C(=O)Cc1c(-c2ccc(Cl)cc2)nc2c(NC(=S)Nc3ccc(SC4=C(/C=C/C5=[N+](CCC)c6ccccc6C5(C)C)CCC/C4=C\C=C4\N(CCC)c5ccccc5C4(C)C)cc3)cccn12` was tested. Which Ki did it give?
**A.** 201 nM
